These results are taken from PubChem BioAssay (NCI).

Each structure is given as a SMILES string.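 Assay format: 96-well plates, 48-hour exposure. Here, GI50 denotes the concentration required for 50% inhibition of growth. TGI: concentration producing complete growth inhibition.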 Where only a bound is given, the exact number is not on record here.

Some test systems named below: OVCAR-3 ovarian; ACHN renal; KM12 colon; U251 CNS; EKVX NSCLC; OVCAR-4 ovarian; LOX IMVI melanoma; COLO 205 colon; NCI-H460 lung; HL-60(TB) leukemia.
Experiment in all cases: NCI-60 cell line screen, 48 h

As for `COC(=O)C[C@@H]1CC=CC(=O)/C1=C(O)/C=C/c1ccccc1`, the GI50 in the assay with OVCAR-3 ovarian was 0.3 µM; with ACHN renal it was 0.268 µM; with KM12 colon, 0.233 µM; in the assay on U251 CNS it was 0.354 µM; with EKVX NSCLC it was 1.85 µM; in the assay with OVCAR-4 ovarian it was 1.54 µM. The GI50 was 0.172 µM in the assay with LOX IMVI melanoma, 0.401 µM in the assay on COLO 205 colon, 2.08 µM with NCI-H460 lung and 1.24 µM in the assay on HL-60(TB) leukemia. For the same molecule, the TGI with OVCAR-3 ovarian stood at 0.93 µM; in the assay on ACHN renal it was 0.743 µM; in the assay on KM12 colon, 0.705 µM; in the assay on U251 CNS, 1.28 µM; in the assay on EKVX NSCLC, 3.91 µM; with OVCAR-4 ovarian it was 2.96 µM. In addition, the TGI in the assay with LOX IMVI melanoma worked out at 0.332 µM; in the assay with COLO 205 colon it was 1.46 µM; with NCI-H460 lung, 8.2 µM; in the assay with HL-60(TB) leukemia it was 4.31 µM.

Consider `COc1ccccc1CNC(=O)/C=C/c1ccc(O)c(O)c1`, for which the GI50 is 67.3 µM in the assay with OVCAR-3 ovarian; 24.5 µM in the assay with ACHN renal; 59.4 µM in the assay with KM12 colon; 42 µM in the assay on U251 CNS; 48.2 µM in the assay on EKVX NSCLC; 40 µM in the assay on OVCAR-4 ovarian. The GI50 was 26.3 µM with LOX IMVI melanoma, 24.4 µM in the assay on COLO 205 colon, 45.9 µM in the assay on NCI-H460 lung and 45.2 µM in the assay with HL-60(TB) leukemia. Moreover, the TGI in the assay on OVCAR-3 ovarian, with ACHN renal, in the assay on KM12 colon, in the assay on U251 CNS, in the assay on EKVX NSCLC and with OVCAR-4 ovarian was above 100 µM throughout. For the same molecule, the TGI in the assay with LOX IMVI melanoma, in the assay with COLO 205 colon, in the assay with NCI-H460 lung and in the assay on HL-60(TB) leukemia was above 100 µM throughout.

As for `CNC(=O)NCCCCC(NC(=O)OCc1ccccc1)C(=O)OCc1ccccc1` (stereo not given), the TGI in the assay with OVCAR-3 ovarian was 32.1 µM; with ACHN renal, 33.8 µM; with KM12 colon, 71 µM; in the assay on U251 CNS, 54.4 µM; with EKVX NSCLC, above 100 µM; with OVCAR-4 ovarian, 46.5 µM. Further, the TGI in the assay with LOX IMVI melanoma is 31.3 µM; in the assay on COLO 205 colon, 31.9 µM; in the assay on NCI-H460 lung, above 100 µM; in the assay with HL-60(TB) leukemia, 32.4 µM.

As to `C=CC(=O)OCCCS(=O)(=O)[O-].C=CC(=O)OCCCS(=O)(=O)[O-].NC1CCCCC1N.[Pt+4]`, the GI50 in the assay on OVCAR-3 ovarian, with ACHN renal, with KM12 colon, in the assay with U251 CNS, in the assay on EKVX NSCLC and with OVCAR-4 ovarian was above 25 µM throughout. Moreover, the GI50 with LOX IMVI melanoma, with COLO 205 colon, in the assay on NCI-H460 lung and in the assay with HL-60(TB) leukemia was above 25 µM each time. Moreover, the TGI with OVCAR-3 ovarian, with ACHN renal, in the assay on KM12 colon, in the assay on U251 CNS, in the assay with EKVX NSCLC and in the assay with OVCAR-4 ovarian was above 25 µM each time. The TGI in the assay with LOX IMVI melanoma, in the assay on COLO 205 colon, in the assay on NCI-H460 lung and with HL-60(TB) leukemia was above 25 µM throughout.

As to `O=C(O)c1ccccc1C(=O)Nc1cc2c(cc1Br)-c1ccccc1C2=O`, the TGI in the assay with OVCAR-3 ovarian, with ACHN renal, with KM12 colon, in the assay with U251 CNS, in the assay on EKVX NSCLC and in the assay with OVCAR-4 ovarian was above 100 µM throughout. In addition, the TGI with LOX IMVI melanoma, in the assay with COLO 205 colon, in the assay on NCI-H460 lung and in the assay on HL-60(TB) leukemia was above 100 µM each time.
